{"source": "paper PMC10537087", "about": "“Evaluating Known Zika Virus NS2B-NS3 Protease Inhibitor Scaffolds via In Silico Screening and Biochemical Assays” (Pharmaceuticals, 2023)", "key": {"[1]": {"target": "ZIKV NS2B-NS3pro (Zika virus, UniProt A0A024B7W1, C1582S/C1645S/R1467A/R1531G)", "experiment": "ZIKV NS2B-NS3pro inhibitory assay with fluorogenic substrate Bz-Nle-Lys-Lys-Arg-AMC", "assay_type": "biochemical", "conditions": "for % ZIKV NS2B/NS3pro Inhibition (100 µM) Without Preincubation: no preincubation; for % ZIKV NS2B/NS3pro Inhibition [Enzyme] = 0.2 nM / % ZIKV NS2B/NS3pro Inhibition [Enzyme] = 2 nM: CHAPS 1 mM; for % ZIKV NS2B/NS3pro Inhibition (100 µM) 0.001% Triton: 0.001% Triton X-100, no Tween-20; for % ZIKV NS2B/NS3pro Inhibition (100 µM) 0.01% Triton: 0.01% Triton X-100, no Tween-20; for % ZIKV NS2B/NS3pro Inhibition (100 µM) BSA: 10 min pre-incubation with BSA 1 mg/mL before enzyme; for Hill Slope Replica 1 / Hill Slope Replica 2: from dose-response curve"}, "[2]": {"experiment": "Cytotoxicity MTT assay (CC50)", "conditions": "African green monkey, Vero (ATCC CCL-81) cells", "procedure": "(§1) The Vero (ATCC® CCL-81™) cell line was used for the cytotoxicity assays and antiviral activity evaluation against ZIKV. Cells were cultured in Eagle’s minimum essential media (MEM) (Cultilab, Campinas, Brazil). The media was supplemented with 5% fetal bovine serum (FBS) (Cultilab, Brazil), in addition to 100 IU/mL penicillin (Cellofarm, Rio De Janeiro, Brazil), 100 μg/mL streptomycin (Merck, Darmstadt, Germany), and 0.25 μg/mL amphotericin B (Cultilab, Brazil).\n(§2) Cells were seeded in 96-well microplates (4.0 × 10^4 cells per well) and incubated at 37 °C and 5% CO2 for 24 h. Then, 200 µL of MEM with 1% FBS containing a serial dilution of the compounds (100 to 12.5 µM) was added. As vehicle control, a serial dilution of DMSO was used. After 72 h of incubation under the same conditions, 100 μL of 3-(4,5-dimethylthiazol-2-yl)-2,5-diphenyltetrazolium bromide (MTT; ThermoFischer Scientific, Waltham, MA, USA) [76] diluted in MEM (0.5 mg/mL) was added to each well and incubated for 3 h. The media was removed, and 100 μL of DMSO was added to each well to solubilize formazan crystals and shaken for 20 min. The absorbance was read at 570 nm using a spectrophotometer (VersaMax, Molecular Devices, San Jose, CA, USA). The percentages of inhibition of cell viability were calculated as the ratio between the absorbance of the compound-treated cells and cells with only the vehicle. […] Linear regression (LR) was used for the analysis, considering results with r^2 > 0.9. All conditions were tested in triplicate and one independent assay (n = 3 data points)."}, "[3]": {"test_system": "Vero (ATCC CCL-81) cell line", "experiment": "Cytotoxicity MTT assay (CC50)", "conditions": "Vero cells", "procedure": "as §1, §2"}, "[4]": {"conditions": "compound 100 µM, 0.005% Tween-20"}, "[5]": {"conditions": "compound 100 µM, 10 min preincubation"}, "[6]": {"conditions": "compound 100 µM, 10 min preincubation with enzyme, 0.005% Tween-20, enzyme 0.2 nM"}}, "note": "Where two headings read alike, the source gives them in different places."}
{"smiles": "O=C(Nc1nc2cnccc2[nH]1)c1ccccc1NS(=O)(=O)c1ccc(F)cc1", "note": "[Compound 3]", "values": [{"measurement": "% ZIKV NS2B/NS3pro Inhibition (100 µM) Without Preincubation", "setting": "[1]; [4]", "result": "56 ± 11", "unit": "%"}, {"measurement": "CC50 at 72 h", "setting": "[2]", "result": "120 ± 3.68", "unit": "µM"}, {"measurement": "Cell viability as percentage of cell control (mean absorbance / CELL)", "setting": "[3]; compound 12.5 µM", "result": 86.7535}, {"measurement": "Cell viability as percentage of cell control (mean absorbance / CELL)", "setting": "[3]; compound 25 µM", "result": 77.5537}, {"measurement": "Cell viability as percentage of cell control (mean absorbance / CELL)", "setting": "[3]; compound 50 µM", "result": 72.6654}, {"measurement": "Cell viability as percentage of cell control (mean absorbance / CELL)", "setting": "[3]; compound 100 µM", "result": 56.6548}]}
{"smiles": "Cc1ccc(S(=O)(=O)Nc2ccccc2C(=O)Nc2nc3ccccc3[nH]2)cc1", "note": "[Compound 7]", "values": [{"measurement": "% ZIKV NS2B/NS3pro Inhibition [Enzyme] = 0.2 nM", "setting": "[1]; compound 25 µM (close to IC50), enzyme 0.2 nM", "result": "87 ± 0.04", "unit": "%"}, {"measurement": "% ZIKV NS2B/NS3pro Inhibition [Enzyme] = 2 nM", "setting": "[1]; compound 25 µM (close to IC50)", "result": "27 ± 6", "unit": "%"}, {"measurement": "% ZIKV NS2B/NS3pro Inhibition (100 µM) 0.001% Triton", "setting": "[1]; [5]", "result": "88 ± 5", "unit": "%"}, {"measurement": "% ZIKV NS2B/NS3pro Inhibition (100 µM) 0.01% Triton", "setting": "[1]; [5]", "result": "12 ± 17", "unit": "%"}, {"measurement": "% ZIKV NS2B/NS3pro Inhibition (100 µM) BSA", "setting": "[1]; compound 100 µM", "result": "89 ± 7", "unit": "%"}, {"measurement": "% ZIKV NS2B/NS3pro Inhibition (100 µM) With Preincubation", "setting": "[1]; [6]", "result": "100 ± 0", "unit": "%"}, {"measurement": "% ZIKV NS2B/NS3pro Inhibition (100 µM) Without Preincubation", "setting": "[1]; [4]", "result": "90 ± 8", "unit": "%"}, {"measurement": "Hill Slope Replica 1", "setting": "[1]", "result": 2.014}, {"measurement": "Hill Slope Replica 2", "setting": "[1]", "result": 1.056}, {"measurement": "CC50 at 72 h", "setting": "[2]", "result": "32.8 ± 1.55", "unit": "µM"}, {"measurement": "Cell viability as percentage of cell control (mean absorbance / CELL)", "setting": "[3]; compound 12.5 µM", "result": 64.4267}, {"measurement": "Cell viability as percentage of cell control (mean absorbance / CELL)", "setting": "[3]; compound 25 µM", "result": 53.8262}, {"measurement": "Cell viability as percentage of cell control (mean absorbance / CELL)", "setting": "[3]; compound 50 µM", "result": 38.9416}, {"measurement": "Cell viability as percentage of cell control (mean absorbance / CELL)", "setting": "[3]; compound 100 µM", "result": 40.3696}]}
{"smiles": "COc1cccc2sc(NC(=O)c3ccccc3CS(=O)(=O)c3ccccc3)nc12", "note": "[Compound 8]", "values": [{"measurement": "% ZIKV NS2B/NS3pro Inhibition (100 µM) Without Preincubation", "setting": "[1]; compound at 10 µM (footnote a), 0.005% Tween-20", "result": "15 ± 11", "unit": "%"}, {"measurement": "% ZIKV NS2B/NS3pro Inhibition (100 µM) With Preincubation", "setting": "[1]; compound at 10 µM (footnote a, solubility limit), 10 min preincubation, 0.005% Tween-20, enzyme 0.2 nM", "result": "8 ± 8", "unit": "%"}, {"measurement": "CC50 at 72 h", "setting": "[2]", "result": "23.6 ± 1", "unit": "µM"}, {"measurement": "Cell viability as percentage of cell control (mean absorbance / CELL)", "setting": "[3]; compound 12.5 µM", "result": 57.338}, {"measurement": "Cell viability as percentage of cell control (mean absorbance / CELL)", "setting": "[3]; compound 25 µM", "result": 54.3981}, {"measurement": "Cell viability as percentage of cell control (mean absorbance / CELL)", "setting": "[3]; compound 50 µM", "result": 21.2269}, {"measurement": "Cell viability as percentage of cell control (mean absorbance / CELL)", "setting": "[3]; compound 100 µM", "result": 17.0602}]}
{"smiles": "COc1cccc2nc(C(=O)c3ccccc3NS(=O)(=O)c3ccc(F)c(C)c3)[nH]c12", "note": "[Compound 12]", "values": [{"measurement": "IC50", "setting": "[1]; 0.005% Tween-20, enzyme 0.2 nM, substrate 44 µM, read-out: ZIKV NS2B/NS3pro IC50", "result": "5 ± 1", "unit": "µM"}, {"measurement": "% ZIKV NS2B/NS3pro Inhibition [Enzyme] = 0.2 nM", "setting": "[1]; compound 10 µM (close to IC50), enzyme 0.2 nM", "result": "94 ± 0.06", "unit": "%"}, {"measurement": "% ZIKV NS2B/NS3pro Inhibition [Enzyme] = 2 nM", "setting": "[1]; compound 10 µM (close to IC50)", "result": "30 ± 10", "unit": "%"}, {"measurement": "% ZIKV NS2B/NS3pro Inhibition (100 µM) 0.001% Triton", "setting": "[1]; [5]", "result": "90 ± 5", "unit": "%"}, {"measurement": "% ZIKV NS2B/NS3pro Inhibition (100 µM) 0.01% Triton", "setting": "[1]; [5]", "result": "5 ± 7", "unit": "%"}, {"measurement": "% ZIKV NS2B/NS3pro Inhibition (100 µM) BSA", "setting": "[1]; compound 100 µM", "result": "87 ± 18", "unit": "%"}, {"measurement": "% ZIKV NS2B/NS3pro Inhibition (100 µM) With Preincubation", "setting": "[1]; [6]", "result": "100 ± 0", "unit": "%"}, {"measurement": "% ZIKV NS2B/NS3pro Inhibition (100 µM) Without Preincubation", "setting": "[1]; [4]", "result": "91 ± 9", "unit": "%"}, {"measurement": "Hill Slope Replica 1", "setting": "[1]", "result": 1.517}, {"measurement": "Hill Slope Replica 2", "setting": "[1]", "result": 1.742}, {"measurement": "IC50", "setting": "[1]; one value per independent assay (two curves per compound), read-out: IC50 of the individual curves for NS2B-NS3pro inhibitors (Figure 3)", "result": 6, "unit": "µM"}, {"measurement": "CC50 at 72 h", "setting": "[2]", "result": "< 12.5", "unit": "µM"}, {"measurement": "Cell viability as percentage of cell control (mean absorbance / CELL)", "setting": "[3]; compound 12.5 µM", "result": 28.1944}, {"measurement": "Cell viability as percentage of cell control (mean absorbance / CELL)", "setting": "[3]; compound 25 µM", "result": 14.2593}, {"measurement": "Cell viability as percentage of cell control (mean absorbance / CELL)", "setting": "[3]; compound 50 µM", "result": 9.861}, {"measurement": "Cell viability as percentage of cell control (mean absorbance / CELL)", "setting": "[3]; compound 100 µM", "result": 10}]}
